Read-outs that look alike come from different tables or passages of the source.
Experiments:
SARS-CoV-2 nsp14 = SARS-CoV-2 nsp14 (Severe acute respiratory syndrome coronavirus 2, UniProt P0DTD1); test: biochemical; settings: for Ligand Efficiency (LE) nsp14: estimated from IC50 values
SARS-CoV-2 nsp16/nsp10 = SARS-CoV-2 nsp16/nsp10 (Severe acute respiratory syndrome coronavirus 2, UniProt P0DTD1); test: biochemical; settings: for Ligand Efficiency (LE) nsp16: estimated from IC50 values
[1] = target: T1, human Glycine N-Methyltransferase (GNMT) (Homo sapiens, UniProt Q14749); test: HTRF methyltransferase selectivity assay, human GNMT; format: biochemical; settings: for Ligand Efficiency (LE) Human (hMtase): estimated from IC50 values
T1 construct: purchased MyBioSource MBS636160
T1 sequence (Q14749 1-295): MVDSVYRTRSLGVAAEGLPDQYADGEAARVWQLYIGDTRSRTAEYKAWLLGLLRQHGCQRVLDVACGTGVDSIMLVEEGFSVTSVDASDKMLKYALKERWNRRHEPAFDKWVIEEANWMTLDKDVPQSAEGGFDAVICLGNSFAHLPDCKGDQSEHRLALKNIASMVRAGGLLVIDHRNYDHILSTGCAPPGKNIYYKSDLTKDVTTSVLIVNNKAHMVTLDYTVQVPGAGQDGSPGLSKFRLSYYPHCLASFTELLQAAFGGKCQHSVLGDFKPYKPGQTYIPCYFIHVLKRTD

[2] = HTRF, SAM 10 µM, GpppG 4 µM, read-out: IC50 nsp14
[3] = HTRF, nsp16/nsp10, SAM 10 µM, m7GpppA-RNA, read-out: IC50 nsp16
[4] = HTRF, SAM 10 µM, glycine 5 mM, read-out: IC50 Human (hMtase, human glycine N-methyltransferase)

| SMILES | Percent inhibition at 100 μM, nsp14 (SARS-CoV-2 nsp14) [%] | Percent inhibition at 100 μM, nsp16 (SARS-CoV-2 nsp16/nsp10) [%] | Percent inhibition at 100 μM, Human [1] [%] | other results |
| --- | --- | --- | --- | --- |
| CC(C)(C)c1csc(SCC(=O)Nc2cccc3nsnc23)n1 [Compound 009-639-090] | 16 ±1 | 43 ±7 | 61 ±9 | – |
| O=C(CSc1nc(CC(=O)Nc2cccc3nsnc23)cs1)Nc1ccc(F)cc1 [Compound 009-741-602] | 25 ±2 | 45 ±5 | 24 ±7 | – |
| CN(CCNc1nc2c(c(=O)[nH]1)Cc1ccccc1OC2)S(C)(=O)=O [Compound 028-736-920] | 8 ±5 | -4 ±3 | 42 ±2 | – |
| Nc1ncnc2c1ncn2[C@@H]1O[C@H](CSCC[C@H](N)C(=O)O)[C@@H](O)[C@H]1O [S-(5′-Adenosyl)-L-homocysteine (SAH), S-(5′-Adenosyl)-L-homocysteine, reference compound] | – | – | – | IC50 (SARS-CoV-2 nsp14): 0.14 µM; Ligand Efficiency (LE) nsp14 (SARS-CoV-2 nsp14): 0.33 kcal/mol; IC50 (SARS-CoV-2 nsp16/nsp10): 0.28 µM; Ligand Efficiency (LE) nsp16 (SARS-CoV-2 nsp16/nsp10): 0.32 kcal/mol; IC50 [1]: 1.7 µM; Ligand Efficiency (LE) Human (hMtase) [1]: 0.28 kcal/mol |
| Nc1ncnc2c1ncn2[C@@H]1O[C@H](C(=O)NC2CC2)[C@@H](O)[C@H]1O [ZINC000004475116] | 32 ±6 | 54 ±10 | 56 ±1 | – |
| NC1=NC(c2ccccc2)n2c(nc(=O)c3ccccc32)N1 (centres unmarked) [ZINC000008994271] | 19 ±10 | 39 ±3 | -3 ±6 | – |
| Cc1ncsc1CCC(=O)N1CCCC(C(=O)c2ccc3c4c(cccc24)CC3)C1 (centres unmarked) [ZINC000012755219] | 9 ±5 | 40 ±8 | 61 ±4 | – |
| CC(=O)N1N=C(c2ccc3c(c2)OCO3)CC1c1cn(-c2ccccc2)nc1C (centres unmarked) [ZINC000012821397] | 27 ±5 | 15 ±5 | -5 ±2 | – |
| Nc1ncnc2c1ncn2[C@@H]1O[C@H](C(=O)N2CCN(CC(=O)Nc3cccc4c3CNC4=O)CC2)[C@@H](O)[C@H]1O [ZINC000017654909] | 62 ±2 | 65 ±7 | 98 ±2 | IC50 (SARS-CoV-2 nsp14; [2]): 75 ± 4 µM; Ligand Efficiency (LE) nsp14 (SARS-CoV-2 nsp14): 0.14 kcal/mol; IC50 (SARS-CoV-2 nsp16/nsp10; [3]): 75 ± 4 µM; Ligand Efficiency (LE) nsp16 (SARS-CoV-2 nsp16/nsp10): 0.14 kcal/mol; IC50 [1, 4]: 22.8 µM; Ligand Efficiency (LE) Human (hMtase) [1]: 0.16 kcal/mol |
| Cc1nc2ccc(Cl)cc2cc1C(=O)Nc1ccc(C(N)=O)cc1 [ZINC000019718669] | 49 ±16 | 66 ±9 | 52 ±4 | – |
| CC(=O)N1N=C(c2ccc3c(c2)OCO3)OC1c1cc(-c2ccccc2)nc2ccccc12 (centres unmarked) [ZINC000021941344] | 12 ±4 | 36 ±10 | 45 ±7 | – |
| COc1cc(NC(=O)C2CCN(Cc3nc(-c4cccc(C)c4)no3)CC2)c(OC)cc1Cl [ZINC000030974583] | 19 ±1 | 45 ±11 | 48 ±8 | – |
| NC(=O)CC[C@H](N)C(=O)NS(=O)(=O)OC[C@H]1O[C@@H](n2cnc3c(N)ncnc32)[C@H](O)[C@@H]1O [ZINC000036477981] | 20 ±3 | 50 ±11 | 89 ±8 | – |
| Nc1ncnc2c1ncn2[C@@H]1O[C@H](COC(=O)c2ccc(S(=O)(=O)F)cc2)[C@@H](O)[C@H]1O [ZINC000048222133] | 58 ±2 | 42 ±6 | 87 ±1 | IC50 (SARS-CoV-2 nsp14; [2]): 53 ± 3 µM; Ligand Efficiency (LE) nsp14 (SARS-CoV-2 nsp14): 0.19 kcal/mol; IC50 (SARS-CoV-2 nsp16/nsp10; [3]): 105 ± 6 µM; Ligand Efficiency (LE) nsp16 (SARS-CoV-2 nsp16/nsp10): 0.17 kcal/mol; IC50 [1, 4]: 25.3 µM; Ligand Efficiency (LE) Human (hMtase) [1]: 0.20 kcal/mol |
| Cc1ccccc1NC(=O)c1nnn2c1NC(C(=O)O)=CC2c1ccc(C(=O)O)cc1 (centres unmarked) [ZINC000072333096] | 25 ±10 | 33 ±12 | 17 ±4 | – |
| Cc1cc(=O)[nH]c(NCCNC(=O)c2cc(-c3cccn3C)n[nH]2)n1 [ZINC000091693861] | 9 ±6 | 24 ±4 | 21 ±6 | – |
| COc1ccccc1CN1CC(C(=O)NCc2n[nH]c(=O)[nH]2)CCC1=O (centres unmarked) [ZINC000092001674] | 0 ±7 | 22 ±12 | 44 ±8 | – |

| SMILES | Percent inhibition at 100 μM, nsp14 (SARS-CoV-2 nsp14) [%] | Percent inhibition at 100 μM, nsp16 (SARS-CoV-2 nsp16/nsp10) [%] | Percent inhibition at 100 μM, Human [1] [%] | other results |
| --- | --- | --- | --- | --- |
| Cc1nc(O)cc(CNc2nc3c(c(=O)[nH]2)Cc2ccccc2OC3)n1 [ZINC000095519272] | 49 ±17 | 57 ±13 | 70 ±3 | IC50 (SARS-CoV-2 nsp14; [2]): ~200 µM; Ligand Efficiency (LE) nsp14 (SARS-CoV-2 nsp14): 0.19 kcal/mol; IC50 (SARS-CoV-2 nsp16/nsp10; [3]): 95 ± 4 µM; Ligand Efficiency (LE) nsp16 (SARS-CoV-2 nsp16/nsp10): 0.21 kcal/mol; IC50 [1, 4]: 53 ± 3 µM; Ligand Efficiency (LE) Human (hMtase) [1]: 0.22 kcal/mol |
| O=C(CCCn1cnc2ccccc2c1=O)Nc1ccc2ncnc(O)c2c1 [ZINC000096114839] | 28 ±7 | 17 ±5 | 83 ±6 | – |
| CCN(CCSc1ccccc1)C(=O)c1cc(-c2ccncc2)n[nH]1 [ZINC000097636636] | 5 ±2 | 19 ±7 | -46 ±2 | – |
| CC(C(=O)NCCCn1ccnn1)c1n[nH]c(=O)c2ccccc12 (centres unmarked) [ZINC000215108606] | 9 ±3 | 40 ±6 | 22 ±6 | – |
| O=C(Cn1ccc(=O)c2ccccc21)NCCSc1cnn[nH]1 [ZINC000218615582] | 21 ±3 | 51 ±4 | 55 ±2 | – |
| CN(Cc1cccc2cnccc12)C(=O)CCC1(CCC(=O)O)CCC(=O)N1 (centres unmarked) [ZINC000220483024] | -5 ±3 | 31 ±6 | 16 ±4 | – |
| CCc1n[nH]c2c1CN(C(=O)c1cccc(-c3cc(O)nc(N)n3)c1)CC2 [ZINC000426470786] | 1 ±6 | 8 ±5 | – | – |
| CN1CC(=O)N(c2cccc(NC(=O)NC[C@H](O)CO)c2)C1=O [ZINC000426716892] | -1 ±2 | 30 ±2 | – | – |
| Cc1cc(-c2ccc(C(=O)NCC(N)=O)cc2)nc(N2CCOCC2)n1 [ZINC000534574506] | 3 ±3 | 17 ±8 | – | – |
| O=C(CN1C(=O)c2ccccc2N2C(=O)c3ccccc3C12)N1CCc2c([nH]c3ccccc23)C1 (centres unmarked) [ZINC000604419204] | 5 ±11 | -3 ±5 | – | – |
| Cc1[nH]c(-c2ccccc2)nc1C(=O)NCc1ccc2[nH]c(=O)[nH]c2c1 [ZINC000680227150] | 19 ±7 | 23 ±5 | – | – |
| O=C(c1ccc2c3c([nH]c2c1)CCCC3)N1CCC[C@H]1c1nc(-c2ccncc2)no1 [ZINC000952966781] | 11 ±10 | 24 ±5 | – | – |
| CN(CC1CCN(c2ccccc2)C1)S(=O)(=O)c1ccc2[nH]c(=O)oc2c1 (centres unmarked) [ZINC000952973746] | 27 ±9 | 38 ±6 | 41 ±1 | – |
| O=C(CCc1n[nH]c2c1CCCC2)NCc1cc(O)ncn1 [ZINC000952975967] | 2 ±7 | -24 ±4 | – | – |
| O=C(CCc1nc2cc(Cl)ccc2[nH]1)N1CC[C@H](n2c(=O)[nH]c3cccnc32)C1 [ZINC1548405210] | 6 ±2 | 15 ±2 | – | – |
| CC(=O)c1cnc(NC(C)c2nnc(CC(=O)O)[nH]2)nc1C (centres unmarked) [ZINC1772709012] | 16 ±13 | 32 ±8 | – | – |
| O=C(C1CCc2sc(-c3ccncc3)nc2C1)N1CCc2c(nc[nH]c2=O)C1 (centres unmarked) [ZINC1772809556] | 15 ±9 | 5 ±8 | – | – |

— article PMC8705538, “Discovery of SARS-CoV-2 Nsp14 and Nsp16 Methyltransferase Inhibitors by High-Throughput Virtual Screening” (Pharmaceuticals, 2021)
